For this data set the following is noted: rat, in vivo. The method, then: Urine samples were collected immediately before administration and then at 1 h and 2.5 h after administration. […] Blood samples were collected immediately before administration and then at 1, 2 and 3 h after administration. After collection, blood samples were spun down at 2000 rpm for 10 min. and the plasma was collected. Both, plasma and urine samples were frozen at −20° C.
Aliquots of the stock solution ([…]) were mixed with 40 μl biofluid (urine or blood plasma) to give a 15 mM trityl radical solution. These solutions were dispensed as droplets into liquid nitrogen to provide the material as vitrified pellets suitable for hyperpolarisation. The solid samples were placed in turn within the DNP magnet and hyperpolarised overnight. The samples were dissolved by injection of a mixture of methanol and acetic acid (100:1). The dissolved samples were quickly manually transferred (approx. 4 s transfer time) to a high-resolution magnet of 9.4 T and single acquisition ^13C-1D-NMR-spectra were acquired.
Quantification of the unknown amount of probe compound/metabolites in the biofluid samples was based on these enhancements and the known amount of probe compound/metabolite used to generate them. […]

SMILES strings stand for the structures.

Regarding `N=C(N)N1Cc2ccccc2C(O)C1` (centres unmarked) [4-OH-Debrisoquine, 4-hydroxy-debrisoquine], the “Signals present in NMR spectrum of urine sample” value is recorded as “present”.

In the case of `N=[13C](N)N1CCc2ccccc2C1` [Debrisoquine], the “Signals present in NMR spectrum of urine sample” value is “present”.

The values above are taken from US20050233470A1, “Methods and compound mixtures for determining protein activity using nmr spectroscopy” (priority 2002, published 2005).
